Like-named read-outs stand apart in the source and are kept apart here. Where a SMILES comes first, the peptide text is derived from it. Bridges are numbered along the chain shown (N, C = ends). [ ]: non-standard residue; d: D form. The star is where a group is joined. hPhe(3-Cl-4-CF3) = N[C@@H](CCc1ccc(C(F)(F)F)c(Cl)c1)C(=O)O; NPrPhe(4-CF3) = CCCN[C@@H](Cc1ccc(C(F)(F)F)cc1)C(=O)O; NEtPhe(4-CF3) = CCN[C@@H](Cc1ccc(C(F)(F)F)cc1)C(=O)O; hPhe(3,4-Cl2) = N[C@@H](CCc1ccc(Cl)c(Cl)c1)C(=O)O; NMeGly(cPent) = CN[C@H](C(=O)O)C1CCCC1; NMeD = CN[C@@H](CC(=O)O)C(=O)O; NMeL = CN[C@@H](CC(C)C)C(=O)O; Morpholide = C1CN(*)CCO1; NMeA = CN[C@@H](C)C(=O)O; Ac5c = NC1(C(=O)O)CCCC1; Aze = O=C(O)[C@@H]1CCN1; NEtG = CCNCC(=O)O; Sar = CNCC(=O)O
What was measured:
HRAS wild-type protein = HRAS wild-type protein (Homo sapiens, UniProt P01112); assay: Binding to HRAS by surface plasmon resonance (SPR), KD and KD ratio to KRAS
Method in brief: (§1)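 Each cycle, GDP-bound biotin-Avi RAS was captured (~100–300 RU), compound concentrations were injected low to high for 75 s each at 100 µL/min, then the chip was regenerated. Buffer: HBS pH 7.4, 10 mM MgCl2, 10 µM GDP, 1 mM DTT, 4% DMSO; 30°C. KD from a 1:1 binding model.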

[1] = biological target: GDP-bound NRAS wild-type protein (Homo sapiens, UniProt P01111); assay: Binding to NRAS by surface plasmon resonance (SPR), KD and KD ratio to KRAS
Method in brief: as §1

[2] = test system: human lung cancer strain NCI-H441; assay type: cell-based
Method in brief: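 Signal came from […] measured per well once the reagent was added. Beforehand, cells were cultured at 37°C and 5% carbon dioxide on a compound series serially diluted in dimethyl sulfoxide.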

[3] = ratio of KD for HRAS wild-type protein to KD for KRAS
[4] = ratio of KD for GDP-bound NRAS wild-type protein to KD for KRAS
[5] = ratio of KD value for HRAS wild-type protein to KD value for KRAS (SPR)
[6] = ratio of KD value for GDP-bound NRAS wild-type protein to KD value for KRAS (SPR)
[7] = ratio of the KD value with respect to HRAS wild-type protein to the KD value with respect to KRAS
[8] = ratio of the KD value with respect to GDP-bound NRAS wild-type protein to the KD value with respect to KRAS

Sequence of GDP-bound NRAS wild-type protein (P01111 whole entry): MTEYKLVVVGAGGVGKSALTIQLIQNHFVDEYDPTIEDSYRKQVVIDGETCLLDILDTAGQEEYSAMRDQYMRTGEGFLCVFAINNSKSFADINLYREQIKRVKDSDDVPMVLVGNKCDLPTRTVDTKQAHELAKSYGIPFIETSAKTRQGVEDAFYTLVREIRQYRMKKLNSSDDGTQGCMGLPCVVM
Sequence of HRAS wild-type protein (P01112 whole entry): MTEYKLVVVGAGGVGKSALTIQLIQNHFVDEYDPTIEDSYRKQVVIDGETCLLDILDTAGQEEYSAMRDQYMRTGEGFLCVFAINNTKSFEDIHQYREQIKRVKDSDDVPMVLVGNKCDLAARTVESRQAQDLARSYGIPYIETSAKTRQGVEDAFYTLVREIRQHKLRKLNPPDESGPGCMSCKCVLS

Row | IC50 [2] [nM] | Compound | HRAS /KRAS (HRAS wild-type protein; [3]) | NRAS /KRAS [1, 4] | HRAS /KRAS (HRAS wild-type protein; [5]) | NRAS /KRAS [1, 6] | HRAS /KRAS (HRAS wild-type protein; [7]) | NRAS /KRAS [1, 8] | IC50 ([2]; NCI-H441 cells, 4 days, CellTiter-Glo, read-out: NCl-H441 IC50) [nM]
1 | 5 | CC[C@H](C)[C@@H]1NC(=O)[C@H](CC(C)C)N(C)C(=O)C[C@@H](C(=O)N2CCOCC2)N(C)C(=O)[C@H](C2CCCC2)N(C)C(=O)C2(CCCC2)NC(=O)[C@@H]2CCCN2C(=O)[C@H](CCc2ccc(Cl)c(Cl)c2)NC(=O)CN(C)C(=O)[C@H](Cc2ccc(C(F)(F)F)cc2)N(CC)C(=O)[C@@H]2CCN2C(=O)[C@H](C)N(C)C1=O [PP0223] ([NMeL]I[NMeA][Aze][NEtPhe(4-CF3)][Sar][hPhe(3,4-Cl2)]P[Ac5c][NMeGly(cPent)][NMeD]-Morpholide; lactam N-11) | C (A compound having a KD ratio of 0.1 or more and less than 3 is denoted as C) | C (A compound having a KD ratio of 0.1 or more and less than 3 is denoted as C) |  |  |  |  | 
2 | 11.3 | CCCC[C@H]1C(=O)N[C@@H]([C@@H](C)CC)C(=O)N(C)CC(=O)N(C)[C@H]2C/C=C\CCN(C2=O)[C@@H](Cc2ccc(C(F)(F)F)cc2)C(=O)N(C)CC(=O)N[C@@H](CCc2cc(F)c(C(F)(F)F)c(F)c2)C(=O)N2C[C@H](OCC)C[C@H]2C(=O)NC2(CC(C)(C)C2)C(=O)N(C)[C@@H](C2CCCC2)C(=O)N(C)[C@H](C(=O)N(C)CC)CC(=O)N1C [PP2806] | A (a compound having 10 or more and less than 20 is denoted as A) | A (a compound having 10 or more and less than 20 is denoted as A) |  |  |  |  | 
3 | 144 | CCO[C@@H]1C[C@H]2C(=O)NC3(CC(C)(C)C3)C(=O)N(C)[C@@H](C(CC)CC)C(=O)N(C)C(C(C)C)CC(=O)N(C)[C@@H](CC3CC3)C(=O)N[C@@H]([C@@H](C)CC)C(=O)N(C)CC(=O)N(C)[C@H]3C/C=C\CCN(C3=O)[C@@H](Cc3ccc(C(F)(F)F)cc3)C(=O)N(C)CC(=O)N[C@@H](CCc3cc(F)c(C(F)(F)F)c(F)c3)C(=O)N2C1 (stereo partly drawn) [PP1593] |  |  | A (a compound having 10 or more and less than 20 is denoted as A) | A (a compound having 10 or more and less than 20 is denoted as A) |  |  | 
4 | 91 | CCCN1C(=O)CN(C)C(=O)CN(C)C(=O)[C@H]([C@@H](C)CC)NC(=O)[C@@H]2CCCCCCC[C@@H](NC(=O)[C@@H]3C[C@@H](OCC)CN3C(=O)[C@H](CCc3cc(F)c(C(F)(F)F)c(F)c3)NC(=O)CN(C)C(=O)[C@@H]1Cc1ccc(C(F)(F)F)cc1)C(=O)N(C)[C@@H](C1CCCC1)C(=O)N(C)[C@H](C(=O)N(C)C)CC(=O)N2C [PP0925] | B (a compound having 3 or more and less than 10 is denoted as B) | A (a compound having 10 or more and less than 20 is denoted as A) |  |  |  |  | 
5 | 98.1 | CCC[C@H]1C(=O)N[C@@H]([C@@H](C)CC)C(=O)N(C)CC(=O)N(C)[C@H]2C/C=C\CCN(C2=O)[C@@H](Cc2ccc(C)cc2)C(=O)N(C)CC(=O)N[C@@H](CCc2cc(Cl)c3c(ccn3C)c2)C(=O)N2C[C@H](OCC)C[C@H]2C(=O)NC2(CC(C)(C)C2)C(=O)N(C)[C@@H](C(CC)CC)C(=O)N(C)[C@H](C(=O)N(C)C)CC(=O)N1C [PP2898] | A (a compound having 10 or more and less than 20 is denoted as A) | A (a compound having 10 or more and less than 20 is denoted as A) |  |  |  |  | 
6 | 9.6 | CCCC[C@H]1C(=O)N[C@@H]([C@@H](C)CC)C(=O)N(C)CC(=O)N(C)[C@H]2C/C=C\CCN(C2=O)[C@@H](Cc2ccc(C)cc2)C(=O)N(C)CC(=O)N[C@@H](CCc2cc(F)c(C(F)(F)F)c(F)c2)C(=O)N2C[C@H](OCC)C[C@H]2C(=O)NC2(CCC2)C(=O)N(C)[C@@H](C2CCCC2)C(=O)N(C)[C@H](C(=O)N(C)CC)CC(=O)N1C [PP2796] | A (a compound having 10 or more and less than 20 is denoted as A) | A (a compound having 10 or more and less than 20 is denoted as A) |  |  |  |  | 
7 | 5.8 | CCO[C@@H]1C[C@H]2C(=O)NC3(CC(C)(C)C3)C(=O)N(C)[C@@H](C(CC)CC)C(=O)N(C)[C@H](C(=O)N(C)C)CC(=O)N(C)[C@@H](CC3CCC3)C(=O)N[C@@H]([C@@H](C)CC)C(=O)N(C)CC(=O)N(C)[C@H]3C/C=C\CCN(C3=O)[C@@H](Cc3ccc(C)cc3)C(=O)N(C)CC(=O)N[C@@H](CCc3ccc(C(F)(F)F)c(OC)c3)C(=O)N2C1 [PP2172] |  |  |  |  | B (a compound having 3 or more and less than 10 is denoted as B) | A (a compound having 10 or more and less than 20 is denoted as A) | 
8 | 10.7 | CCO[C@@H]1C[C@H]2C(=O)NC3(CC(C)(C)C3)C(=O)N(C)[C@@H](C(CC)CC)C(=O)N(C)[C@H](C(=O)N(C)C)CC(=O)N(C)[C@@H](CC3CC3)C(=O)N[C@@H]([C@@H](C)CC)C(=O)N(C)CC(=O)N(C)[C@H]3C/C=C\CCN(C3=O)[C@@H](Cc3ccc(C(F)(F)F)cc3)C(=O)N(C)CC(=O)N[C@@H](CCc3ccc(C(F)(F)F)c(OC)c3)C(=O)N2C1 [PP2155] |  |  |  |  | B (a compound having 3 or more and less than 10 is denoted as B) | A (a compound having 10 or more and less than 20 is denoted as A) | 
9 | 5.1 | CCO[C@@H]1C[C@H]2C(=O)NC3(CC(F)(F)C3)C(=O)N(C)[C@@H](C3CCCC3)C(=O)N(C)[C@H](C(=O)N(C)CC)CC(=O)N(C)[C@@H](CC3CC3)C(=O)N[C@@H]([C@@H](C)CC)C(=O)N(C)CC(=O)N(C)[C@H]3C/C=C\CCN(C3=O)[C@@H](Cc3ccc(C(F)(F)F)cc3)C(=O)N(C)CC(=O)N[C@@H](CCc3cc(F)c(C(F)(F)F)c(F)c3)C(=O)N2C1 [PP1738] |  |  | A (a compound having 10 or more and less than 20 is denoted as A) | AA (a compound having 20 or more is denoted as AA) |  |  | 
10 |  | CCOC[C@H]1C(=O)N[C@@H]([C@@H](C)CC)C(=O)N(C)CC(=O)N(C)[C@H]2C/C=C\CCN(C2=O)[C@@H](Cc2ccc(OC)cc2)C(=O)N(C)CC(=O)N[C@@H](CCc2ccc(C(F)(F)F)c(OC)c2)C(=O)N2C[C@@H](C)C[C@H]2C(=O)NC2(CC(C)(C)C2)C(=O)N(C)[C@@H](C2CCCC2)C(=O)N(C)[C@H](C(=O)N(C)CC)CC(=O)N1C [PP2702] | B (a compound having 3 or more and less than 10 is denoted as B) | A (a compound having 10 or more and less than 20 is denoted as A) |  |  |  |  | 21.4
11 | 99.1 | CCCN1C(=O)CN(C)C(=O)CN(CC)C(=O)[C@H]([C@@H](C)CC)NC(=O)[C@H](CC(C)C)N(C)C(=O)C[C@@H](C(=O)N(C)C)NC(=O)[C@H](C2CCCC2)N(C)C(=O)C2(CCCC2)NC(=O)[C@@H]2CCCN2C(=O)[C@H](CCc2ccc(C(F)(F)F)c(Cl)c2)NC(=O)CN(C)C(=O)[C@@H]1Cc1ccc(C(F)(F)F)cc1 [PP0367] ([NMeL]I[NEtG][Sar][NPrPhe(4-CF3)][Sar][hPhe(3-Cl-4-CF3)]P[Ac5c][NMeGly(cPent)]D-NMe2; lactam N-11) | B (a compound having 3 or more and less than 10 is denoted as B) | B (a compound having 3 or more and less than 10 is denoted as B) |  |  |  |  | 
12 | 24.2 | C#CC[C@H]1C(=O)N[C@@H]([C@@H](C)CC)C(=O)N(C)CC(=O)N(C)[C@H]2CCCCCN(C2=O)[C@@H](Cc2ccc(C(F)(F)F)cc2)C(=O)N(C)CC(=O)N[C@@H](CCc2cc(F)c(C(F)(F)F)c(F)c2)C(=O)N2C[C@H](OCC)C[C@H]2C(=O)NC2(CCC2)C(=O)N(C)[C@@H](C2CCCC2)C(=O)N(C)[C@H](C(=O)N2CCOCC2)CC(=O)N1C [PP0681] |  |  |  |  | B (a compound having 3 or more and less than 10 is denoted as B) | B (a compound having 3 or more and less than 10 is denoted as B) | 
13 | 5.1 | CCO[C@@H]1C[C@H]2C(=O)NC3(CCC3)C(=O)N(C)[C@@H](C3CCCC3)C(=O)N(C)[C@H](C(=O)N3CCOCC3)CC(=O)N(C)[C@@H](CC(C)(C)C)C(=O)N[C@@H]([C@@H](C)CC)C(=O)N(C)CC(=O)N(C)[C@H]3CCCCN(C3=O)[C@@H](Cc3ccc(C(F)(F)F)cc3)C(=O)N(C)CC(=O)N[C@@H](CCc3cc(F)c(C(F)(F)F)c(F)c3)C(=O)N2C1 [PP0714] |  |  |  |  | B (a compound having 3 or more and less than 10 is denoted as B) | C (A compound having a KD ratio of 0.1 or more and less than 3 is denoted as C) | 
14 | 18.4 | CC[C@H](C)[C@@H]1NC(=O)[C@H](CC(C)C)N(C)C(=O)C[C@@H](C(=O)N2CCOCC2)N(C)C(=O)[C@H](C2CCCC2)N(C)C(=O)C2(CCOCC2)NC(=O)[C@@H]2CCCN2C(=O)[C@H](CCc2cc(F)c(C(F)(F)F)c(F)c2)NC(=O)CN(C)C(=O)[C@H](Cc2ccc(C(F)(F)F)cc2)N2CCCC[C@@H](C2=O)N(C)C(=O)CN(C)C1=O [PP0564] |  |  |  |  | B (a compound having 3 or more and less than 10 is denoted as B) | B (a compound having 3 or more and less than 10 is denoted as B) | 
15 | 16.2 | CCO[C@@H]1C[C@H]2C(=O)NC3(CC(C)(C)C3)C(=O)N(C)[C@@H](C(CC)CC)C(=O)N(C)[C@H](C(=O)N(C)C)CC(=O)N(C)[C@@H](CC3CCC3)C(=O)N[C@@H]([C@@H](C)CC)C(=O)N(C)CC(=O)N(C)[C@H]3C/C=C\CCN(C3=O)[C@@H](Cc3ccc(C(F)(F)F)cc3)C(=O)N(C)CC(=O)N[C@@H](CCc3cc(F)c(C(F)(F)F)c(F)c3)C(=O)N2C1 [PP2133] |  |  |  |  | A (a compound having 10 or more and less than 20 is denoted as A) | AA (a compound having 20 or more is denoted as AA) | 

— patent EP4603105A1, “PHARMACEUTICAL COMPOSITION CONTAINING CYCLIC COMPOUND HAVING SELECTIVE KRAS INHIBITORY EFFECT AGAINST HRAS AND NRAS” (CHUGAI SEIYAKU KABUSHIKI KAISHA, priority 2022, dated 2024)
